Consider three compounds from patent EP0124925A1, “Derivatives of d-2-(6-methoxy-2-naphthyl)-propionic acid having therapeutical activity, process for their preparation and pharmaceutical compositions containing them” (FARMA RESA SrL, priority 1983, dated 1984).

Counter-ions that a name gives are not always drawn. Bounds are passed on as bounds.

The subject of one data set is Sprague-Dawley male,rats. Description: yeast induced hyperpyrexy test (antipyretic activity). The conditions noted are these: Rattus norvegicus, tested dosages 100, 200 and 400 mg/kg. In kind it is in vivo. Here is the method:
This test has been carried out in the manner known from the literature in Sprague-Dawley male,rats, having a body weight of 190-220g, which were selected according to the rectal temperature which was of between 37.0 and 37.7°C.
The hyperpyrexy was induced by subcutaneous injection of 2.0 ml of a 7.5% suspension of yeast as prepared at the moment.
The tested dosages were 100, 200 and 400 mg/kg and the found ED33 value was 802 mg/kg.

A further data set has as its system Swiss male albine mice. Description: acetic acid induced stretching or writhing inhibition test (analgesic activity). It counts as in vivo. Here is the method: This test was carried out in Swiss male albine mice, having a body weight of 30-40 g through the "stretching or writhing" inhibition test, as induced by acetic acid, the test being carried out in a manner per se known from the literature.
(In general: An intraperitoneal irritant provokes the stretching counted in writhing tests.)

In data set [1] the test system is Sprague-Dawaley male rats. Briefly: carrageenin induced oedema test (anti-inflammatory activity). In kind it is in vivo. The conditions noted are these: for ED33: Rattus norvegicus, carrageenin oedema inhibition. Here is the method: This activity has been evaluated for the NXTP compound by the carrageenin induced oedema test, carried out in the manner known in the literature, in Sprague-Dawaley male rats, having a body weight of 180-200 g, the NXTP being administered to groups of 3 animals each at the dosages of 50, 100, 200 and 400 mg/kg, the results
being evalutaed in comparison with a control group.
Since in no caso an inhibition rate of 50% was attained, the value of ED 33 was calculated, it being 759 rng/kg (0,651 mM/kg).
For orientation: Carrageenan injected into the paw causes an acute inflammation.

A short description of data set [2]: mucolithic activity: viscosity of expectorate. The conditions noted are these: 0.05M, one hour incubation at 37°C. The protocol: This test was carried out, in the manner known from the literature, in 13 ml samples of expectorate collected from hospitalized patients, and stored in a freezer at -20°C until the testing time.
At the tested concentration of the compound undergoing the experiment (0.05M) a viscosity reduction of 16% (29% to 13%) was found. ^7

A short description of a further data set: solubility in water. In kind it is physicochemical.

What is called ED50 is the midpoint of the dose-response relation. For `COc1ccc2cc(C(C)C(=O)SC(C)C(=O)NCC(=O)O)ccc2c1` (racemic) [NXTP, propionylerytrhomycin salt of DL-2-(6-methoxy-2-napthyl)-propionyl-alpha-thio-propionylglycine], the ED33 is 802 mg/kg in the data set with Sprague-Dawley male,rats; 651 µmol/kg in data set [1] (same value in molar unit); 759 mg/kg in data set [1] (tested dosages 50, 100, 200 and 400 mg/kg, calculated because 50% inhibition was not attained). Also, in the data set with Swiss male albine mice (Mus musculus, sc, inhibition of contorsions induced by acetic acid, subcutaneous route, tested doses 50, 100 and 200 mg/kg), the median effective dose (ED50) was 400 mg/kg. Besides, the “inhibition of the number of contorsions (dose dependence)” value in the data set with Swiss male albine mice (doses 50, 100 and 200 mg/kg by subcutaneous route) is “in a rate proportional to the administered doses”. For the same compound, the “oedema inhibition (dose dependence)” value in data set [1] (dosages 50, 100, 200 and 400 mg/kg, versus control group) is on record as “causes the oedema to be inhibited proportionally to the administered dose”. Further, the inhibition rate in data set [1] (oedema inhibition at 50, 100, 200 and 400 mg/kg, 50% attained in no case) is listed as < 50%. In addition, in data set [2], the “viscosity reduction (net of the 13% reduction with physiological solution)” value was determined as 16%. Further, the “viscosity reduction (total)” value in data set [2] is on record as 29%.
As for `COc1ccc2cc(C(C)C(=O)SC(C)C(=O)NCC(=O)O)ccc2c1` (single isomer, unassigned) [L(+)-lysine salt of the DL-2-(6-methoxy-2-napthyl)-alpha- th] [L(+)lysine salt of DL-2-(6-methoxy-2-napthyl)-propionyl-alpha-thio-propionylglycine acid], the solubility in water result in “solubility in water” is listed as “perfectly soluble in water”.
As to `COc1ccc2cc(C(C)C(=O)SC(C)C(=O)NCC(=O)O)ccc2c1` (single isomer, unassigned) [arginine crystalline product, Arginine salt of DL-2-(6-methoxy-2-napthyl)propionyl-alpha-thio-propionylglycine], in the data set “solubility in water”, the solubility in water result is recorded as “soluble in water”. For the same compound, the pH in the data set “solubility in water” (pH of the product dissolved in water) is reported as 7.3.
